Test results reported in PubChem BioAssay (NCI).
“And” between values parts separate entries of the source, which are not always exact repeats. Equal entries are not always repeated.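 Cells were grown in 96-well plates and exposed to each compound for 48 hours at five concentrations; endpoints were interpolated linearly between bracketing concentrations, or set to the highest concentration if not reached. The concentration for 50% growth inhibition is given as GI50. TGI marks complete inhibition of growth.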

How the values were obtained:
Test in all cases: NCI anticancer screen, dose series, 48 h
[1] = test system: M14 melanoma
[2] = test system: SF-268 CNS
[3] = test system: SNB-75 CNS
[4] = test system: NCI-H23 lung
[5] = test system: SNB-19 CNS
[6] = test system: DLD-1 colon
[7] = test system: M19-MEL melanoma
[8] = test system: HCC-2998 colon
[9] = test system: OVCAR-4 ovarian
[10] = test system: OVCAR-5 ovarian

Structure (SMILES)	TGI [1]	TGI [2]	TGI [3]	TGI [4]	TGI [5]	TGI [6] [µM]	TGI [7]	TGI [8]	TGI [9]	TGI [10]	GI50 [3] [µM]	GI50 [4] [µM]	GI50 [5] [µM]	GI50 [7]	GI50 [6] [µM]	GI50 [1] [µM]	GI50 [2] [µM]	GI50 [9] [µM]	GI50 [8] [µM]	GI50 [10] [µM]
CCCCc1c2c(nc3c1CC/C(=C\c1ccccc1)C3=O)CCCC2	18.9 µM	12.6 µM	23 µM	17.7 µM	12.6 µM	12.7	16.9 µM	8.34 µM	–	–	–	–	–	–	–	–	–	–	–	–
CCOC(=O)c1c(/C=N\Nc2ccccc2)nc2ccccc2c1-c1ccccc1	> 100 µM	> 100 µM	> 100 µM	> 100 µM	> 100 µM	–	60.7 µM	77 µM	> 100 µM	> 100 µM	–	–	–	–	–	–	–	–	–	–
CCOC(=O)NC/C=C/CO	> 100 µM	> 100 µM	> 100 µM	–	> 100 µM	> 100	> 100 µM	> 100 µM	> 100 µM	–	–	–	–	–	–	–	–	–	–	–
O=C1NC2(CCCCC2)C2=C1CCCCC2	> 100 µM	> 100 µM	> 100 µM	> 100 µM	> 100 µM	> 100	> 100 µM	–	> 100 µM	> 100 µM	–	–	–	–	–	–	–	–	–	–
NC(=O)NC(=O)C1CCC(=O)N1S(=O)(=O)c1ccc(Cl)cc1 (configuration not stated)	> 100 µM	> 100 µM	> 100 µM	> 100 µM	> 100 µM	> 100	> 100 µM	–	> 100 µM	–	–	–	–	–	–	–	–	–	–	–
CCCNc1ncnc2c1cnn2C	> 100 µM	> 100 µM	> 100 µM	> 100 µM	> 100 µM	–	> 100 µM	> 100 µM	> 100 µM	> 100 µM	–	–	–	–	–	–	–	–	–	–
COC(=O)N/N=C(\c1nc2ccc(Cl)cc2[nH]c1=O)C(O)c1ccc([N+](=O)[O-])cc1 (configuration not stated)	> 100 µM	> 100 µM	> 100 µM	> 100 µM	> 100 µM	> 100	> 100 µM	> 100 µM	> 100 µM	> 100 µM	–	–	–	–	–	–	–	–	–	–
CC1CC2C(=O)N(c3ccccc3)C(=O)C2c2[nH]c3ccccc3c21 (configuration not stated)	> 100 µM	> 100 µM	55.1 µM	> 100 µM	–	> 100	> 100 µM	> 100 µM	> 100 µM	–	–	–	–	–	–	–	–	–	–	–
Cc1cc2c(=O)cc(-c3ccncc3)oc2c(C(=O)O)c1C	–	> 100 µM	> 100 µM	> 100 µM	> 100 µM	–	> 100 µM	> 100 µM	–	> 100 µM	–	–	–	–	–	–	–	–	–	–
CCCCCCCCCCCCCCCC(=O)NCC(OCC)OCC	> 100 µM	> 100 µM	> 100 µM	> 100 µM	> 100 µM	> 100	> 100 µM	> 100 µM	> 100 µM	> 100 µM	–	–	–	–	–	–	–	–	–	–
COC(=O)CCSC(=O)Nc1ccccc1Cl	> 100 µM	> 100 µM	> 100 µM	> 100 µM	> 100 µM	> 100	–	> 100 µM	> 100 µM	> 100 µM	–	–	–	–	–	–	–	–	–	–
COc1cccc(OC)c1/C=N\N1C(=O)c2ccccc2C1=O	58.2 µM	> 100 µM	98.1 µM	> 100 µM	> 100 µM	> 100	> 100 µM	91.9 µM	> 100 µM	> 100 µM	–	–	–	–	–	–	–	–	–	–
Cc1c2cc[n+](C)cc2c(C)c2c1[nH]c1ccc(Oc3ccccc3)cc12	> 61.5 µM and 40.1 µM	14.7 µM and > 19.9 µM	4.36 µM and 5.27 µM	–	0.887 µM and 4.09 µM	> 100	24.5 µM and > 100 µM	> 47.9 µM and 39.6 µM	36.5 µM and > 68.7 µM	> 42 µM and 29.9 µM	0.549	1.73	0.23	2.56 µM and 3.23 µM	–	–	–	–	–	–
CC(=O)OCc1cc2c(s1)C(=O)c1sccc1C2=O	< 0.0189 µM	0.417 µM	0.12 µM	0.0378 µM	0.317 µM	0.342	–	3.22 µM	0.334 µM	0.332 µM	–	–	–	–	–	–	–	–	–	–
NC1CC(n2ccc(=O)[nH]c2=O)OC1C(O)CO (configuration not stated)	> 100 µM	> 100 µM	> 100 µM	> 100 µM	> 100 µM	> 100	> 100 µM	> 100 µM	> 100 µM	> 100 µM	–	–	–	–	–	–	–	–	–	–
O=[N+]([O-])c1cccc(C2=NOC3CCCC23)c1 (configuration not stated)	> 100 µM	> 100 µM	> 100 µM	> 100 µM	> 100 µM	> 100	> 100 µM	> 100 µM	> 100 µM	> 100 µM	–	–	–	–	–	–	–	–	–	–
O=C(/C=C/c1ccc(OCC(=O)N2CCN(c3ccccc3)CC2)cc1)c1ccccc1	> 100 µM	> 89.4 µM	> 78.9 µM	85.6 µM	> 82.9 µM	> 100	> 100 µM	> 72.4 µM	> 100 µM	> 90 µM	–	–	–	–	–	–	–	–	–	–

Structure (SMILES)	TGI [1]	TGI [2]	TGI [3]	TGI [4]	TGI [5]	TGI [6] [µM]	TGI [7]	TGI [8]	TGI [9]	TGI [10]	GI50 [3] [µM]	GI50 [4] [µM]	GI50 [5] [µM]	GI50 [7]	GI50 [6] [µM]	GI50 [1] [µM]	GI50 [2] [µM]	GI50 [9] [µM]	GI50 [8] [µM]	GI50 [10] [µM]
Cc1c(C(=O)C/C(=N/NC(=O)CC#N)C(N)=O)[n+](=O)c2ccccc2n1[O-]	> 100 µM	> 100 µM	> 100 µM	> 100 µM	> 100 µM	> 100	50.7 µM	> 100 µM	> 100 µM	> 100 µM	–	–	–	–	–	–	–	–	–	–
Cn1nc(-c2ccccc2)c(C(=O)/C=C/c2ccccc2)c(N2CCCC2)c1=O	35.3 µM	64.2 µM	–	29.9 µM	–	34.2	37.3 µM	–	–	–	–	–	–	–	–	–	–	–	–	–
CN(C)c1ccc(/C=C2\Cc3ccccc3C2=O)cc1Br	> 100 µM	> 100 µM	> 100 µM	> 100 µM	> 100 µM	> 100	> 100 µM	> 100 µM	> 100 µM	> 100 µM	–	–	–	–	–	–	–	–	–	–
NC1=NN(c2ccccc2)C(=O)C1/C(=N\NC(=O)c1cc2ccccc2cc1O)C(=O)Nc1ccc(Cl)cc1 (configuration not stated)	74.7 µM	89.3 µM	54.8 µM	77.3 µM	> 100 µM	> 100	89.6 µM	> 100 µM	> 100 µM	> 100 µM	–	–	–	–	–	–	–	–	–	–
CC1=CC(=O)N2[C@H](OC[C@@H]2C(C)C)O1	> 100 µM	> 100 µM	> 100 µM	> 100 µM	> 100 µM	> 100	> 100 µM	–	> 100 µM	–	–	–	–	–	–	–	–	–	–	–
O=c1cccccc1[O-].O=c1cccccc1[O-].O=c1cccccc1[O-].[Dy+3]	> 100 µM	> 100 µM	52.1 µM	66.4 µM	> 100 µM	> 100	–	> 100 µM	> 100 µM	> 100 µM	–	–	–	–	16.9	–	–	–	–	–
O=C(CO[N+](=O)[O-])OCC(=O)c1ccccc1	> 100 µM	> 100 µM	> 100 µM	> 100 µM	> 100 µM	> 100	> 100 µM	> 100 µM	> 100 µM	> 100 µM	–	–	–	–	–	–	–	–	–	–
CC(C)=NO.CC(C)=NO.CC(C)=NO.CC(C)=NO.[Ti]	> 100 µM	> 100 µM	> 100 µM	–	> 100 µM	> 100	> 100 µM	> 100 µM	> 100 µM	> 100 µM	> 100	–	> 100	> 100 µM	> 100	> 100	> 100	> 100	> 100	> 100
O=C1COc2cc3c(cc2N1)SCC(=O)N3	> 100 µM	> 100 µM	> 100 µM	> 100 µM	> 100 µM	> 100	> 100 µM	> 100 µM	> 100 µM	–	–	–	–	–	–	–	–	–	–	–
Cc1[nH]n(C(=O)c2ccc(Cl)cc2)c(=O)c1/C=C1\C(O)=CC(=O)c2ccccc21	> 100 µM	> 100 µM	–	> 100 µM	> 100 µM	> 100	> 100 µM	> 100 µM	> 100 µM	> 100 µM	–	–	–	–	–	–	–	–	–	–
CN1C/C(=C\c2ccco2)c2nc(N)nc(-c3ccco3)c2C1	> 100 µM	> 100 µM	> 100 µM	> 100 µM	> 100 µM	> 100	> 100 µM	> 100 µM	–	> 100 µM	–	–	–	–	–	–	–	–	–	–
CCOC(=O)Oc1ccc2[nH]c3c(C)cc(N)c(C)c3c2c1	> 100 µM	> 100 µM	> 100 µM	> 100 µM	> 100 µM	> 100	> 100 µM	> 100 µM	> 100 µM	> 100 µM	–	–	–	–	–	–	–	–	–	–
CCOC(=O)C1C(=O)C(=O)N2CCc3c([nH]c4ccccc34)C12 (configuration not stated)	> 100 µM	> 100 µM	–	> 100 µM	> 100 µM	> 100	> 100 µM	> 100 µM	> 100 µM	> 100 µM	–	–	–	–	–	–	–	–	–	–
Cc1c(N)nc(C2CC(=O)N2CC(N)C(N)=O)nc1C(=O)NC(C(=O)NC(C)C(O)C(C)C(=O)NC(C(=O)NCCc1nc(-c2nc(C(=O)NCCNCC(C)O)cs2)cs1)C(C)O)C(OC1OC(CO)C(O)C(O)C1OC1OC(CO)C(O)C(OC(N)=O)C1O)c1cnc[nH]1 (configuration not stated)	50 µM and 23.8 µM	32.6 µM and > 23.2 µM	23.9 µM and 6.66 µM	16.3 µM and 8.81 µM	50 µM and > 100 µM	> 100	> 57.6 µM	> 100 µM	50 µM and > 100 µM	50 µM and 57.4 µM	3.06	1.06	13.6	–	–	7.91	1.69	10.7	–	9.82
Cn1c(=O)c(-c2c(Cl)cccc2Cl)cc2cnc(Nc3ccc(N4CCOCC4)cc3)nc21	–	> 27.9 µM	0.0916 µM	0.31 µM	> 22.6 µM	–	–	0.209 µM	> 100 µM	0.799 µM	< 0.01	< 0.01	0.561	–	–	< 0.01	0.391	0.404	0.0431	0.0349
Cc1cccc(Cc2cnc(NC(=O)CCCOc3ccc(Cl)cc3)s2)c1	> 100 µM	> 100 µM	> 100 µM	> 100 µM	> 100 µM	–	–	> 100 µM	> 100 µM	> 100 µM	2.66	28	> 100	–	–	3.68	> 100	3.71	9.46	5.88
Nc1ccc2ncc(Nc3ccc(Cl)c(Cl)c3)nc2c1	94.1 µM	> 100 µM	59.4 µM	47.9 µM	81.4 µM	> 100	47.4 µM	32.8 µM	> 100 µM	> 100 µM	–	–	–	–	–	–	–	–	–	–
